According to PubChem BioAssay AID608 (Sanford-Burnham Center for Chemical Genomics, 2007):
Activity calls are given as the source filed them. How the calls were made is not given here.

Molecular target: Peptidyl-prolyl cis-trans isomerase FKBP1A (Homo sapiens) (UniProt P62942)
Experiment: FKBP12 binders, biophysical, NMR detection (AID 608)
Conditions: NMR binding, purified FKBP12

Sequence of Peptidyl-prolyl cis-trans isomerase FKBP1A (Homo sapiens) (P62942 whole entry, looked up): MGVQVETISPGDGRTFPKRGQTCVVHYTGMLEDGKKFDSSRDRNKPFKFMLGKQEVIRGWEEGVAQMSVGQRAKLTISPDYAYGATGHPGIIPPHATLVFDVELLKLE

| Compound | Kd |
| --- | --- |
| CCOC(=O)C1CCN(Cc2ccccc2)CC1=O (stereo unspecified) | > 4 mM (inactive) |
| O=C(Nc1ccc2c(c1)OCCO2)c1c(F)cccc1F | > 4 mM (inactive) |
| Cc1nn(C)c2sc(CO)cc12 | > 4 mM (inactive) |
| COc1ccccc1NC(=O)c1snnc1C | > 4 mM (inactive) |
| CC(=O)N1CC2(C)CN(C(C)=O)CC(C)(C1)C2O (stereo unspecified) | > 4 mM (inactive) |
| O=c1cc(-c2ccccc2)oc2cc(O)c(O)c(O)c12 | > 4 mM (inactive) |
| CC(C)(C)C(=O)Nc1nnc(SCC(N)=O)s1 | > 4 mM (inactive) |
| OCc1ccc2c(c1)CCO2 | > 4 mM (inactive) |
| Nc1ccc(CN2CCOCC2)cc1 | > 4 mM (inactive) |
| O=c1oc2ccccc2cc1O | > 4 mM (inactive) |
| CC(=O)c1cc(C)ccc1O | > 4 mM (inactive) |
| COc1cc(C(C)=O)ccc1OCC(O)Cn1ccnc1 (stereo unspecified) | > 4 mM (inactive) |
| N#CC(O[C@@H]1O[C@H](CO[C@@H]2O[C@H](CO)[C@@H](O)[C@H](O)[C@H]2O)[C@@H](O)[C@H](O)[C@H]1O)c1ccccc1 (stereo partly specified) | > 4 mM (inactive) |
| COc1ccc2c(c1)O[C@H]1c3ccc(OC)cc3OC[C@@H]21 | > 4 mM (inactive) |
| Oc1ccc2nonc2c1 | > 4 mM (inactive) |
| Cc1nnc(SCC(N)=O)c2ccccc12 | > 4 mM (inactive) |
| COc1cc2c(cc1OC)[C@@H]1C(=O)c3ccc4c(c3O[C@@H]1CO2)CC(C(C)C)O4 (stereo partly specified) | > 4 mM (inactive) |
| Cc1cc(C)c(C)c(OCC(=O)N2CCOCC2)c1 | inactive |
| O=C(O)Cn1cc(C(F)(F)F)ccc1=O | > 4 mM (inactive) |
| NC(=O)CCN1C(=O)c2ccccc2C1=O | > 4 mM (inactive) |
| COc1c(C(C)C)oc2cc3oc(=O)ccc3cc12 | > 4 mM (inactive) |

| Compound | Kd |
| --- | --- |
| Cc1cc(C)cc(NS(=O)(=O)N2CCOCC2)c1 | inactive |
| O=C(O)CCSc1nc2ccccc2s1 | > 4 mM (inactive) |
| CSc1cc(C)[nH]c(=O)n1 | > 4 mM (inactive) |
| O=C(NC1CCS(=O)(=O)C1)c1cccs1 (stereo unspecified) | > 4 mM (inactive) |
| O=c1ccc2cc(O)c(O)cc2o1 | > 4 mM (inactive) |
| COc1ccccc1NS(=O)(=O)c1c[nH]c(=O)[nH]c1=O | > 4 mM (inactive) |
| O=C(O)CCCc1nc2ccccc2s1 | > 4 mM (inactive) |
| O=C(O)c1ccc(-c2cccs2)cc1 | > 4 mM (inactive) |
| COc1cc(CNCc2cccs2)ccc1OCC(=O)N1CCOCC1 | > 4 mM (inactive) |
| C=C[C@@](C)(O)CCC1C(=C)CCC2[C@@](C)(CO)CCC[C@]12C (stereo partly specified) | > 4 mM (inactive) |
| N/C(=N/O)C1COc2ccccc2O1 (stereo unspecified) | > 4 mM (inactive) |
| O=C(c1ncc[nH]1)c1ccccc1C(=O)N1CCOCC1 | > 4 mM (inactive) |
| NC(=O)CSc1nnc2ccc(-c3ccccn3)nn12 | > 4 mM (inactive) |
| COc1cc2c(cc1OC)Cc1cc(OC)c(OC)cc1Cc1cc(OC)c(OC)cc1C2 | > 4 mM (inactive) |
| Cc1ccc(CO)o1 | > 4 mM (inactive) |
| C/C=C(/C)C(=O)O[C@@H]1[C@H](OC(C)=O)[C@@]2(CO)C(CC1(C)C)C1=CCC3[C@@]4(C)CC[C@H](O[C@@H]5O[C@H](C(=O)O)[C@@H](O[C@@H]6O[C@H](CO)[C@@H](O)[C@H](O)[C@H]6O)[C@H](O)[C@H]5O[C@@H]5O[C@H](CO)[C@@H](O)[C@H](O)[C@H]5O)[C@](C)(CO)C4CC[C@@]3(C)[C@]1(C)C[C@H]2O (stereo partly specified) | > 4 mM (inactive) |
| O=C(O)CCCCCCCC(=O)O | > 4 mM (inactive) |
| C=C(C)[C@@H]1CC[C@]2(CO)CC[C@]3(C)[C@H](CCC4[C@@]5(C)CC[C@H](O)C(C)(C)C5CC[C@]43C)C12 (stereo partly specified) | > 4 mM (inactive) |
| NC(=O)C1CCN(C(=S)c2ccccc2)CC1 | > 4 mM (inactive) |
| CC1CCN(C(=O)c2cc3ccccc3o2)CC1 | > 4 mM (inactive) |
| Nc1scc[n+]1CC(=O)[O-] | > 4 mM (inactive) |

| Compound | Kd |
| --- | --- |
| C#CCCCCCCCCCCCC(O)CC(O)COC(C)=O (stereo unspecified) | > 4 mM (inactive) |
| CC(=O)O[C@H]1CC[C@@]2(C)C(=CCC3C2CC[C@@]2(C)C3CC[C@@H]2C(C)CCCC(C)C)C1 (stereo partly specified) | > 4 mM (inactive) |
| c1ccc(-n2nnnc2-n2cnc3ccccc32)cc1 | > 4 mM (inactive) |
| CC1(C)CC2(C)N(N)C(=O)CN2C(=S)N1 (stereo unspecified) | > 4 mM (inactive) |
| OCC1COc2ccccc2O1 (stereo unspecified) | > 4 mM (inactive) |
| Cc1cccn2cc(CNc3ccccc3)nc12 | > 4 mM (inactive) |
| c1ccc(-c2csc(Nc3cccnc3)n2)nc1 | > 4 mM (inactive) |
| COn1c(=O)c(C)[n+]([O-])c2ccccc21 | > 4 mM (inactive) |
| Cc1cc(C)c2nncn2n1 | > 4 mM (inactive) |
| COc1ccc(C2(C)CC(=O)NC2=O)cc1 (stereo unspecified) | > 4 mM (inactive) |
| NC(=O)c1cc(N)cc(C(N)=O)c1 | > 4 mM (inactive) |
| CNC(=O)C(=O)Nc1ccc(C)c(C)c1 | > 4 mM (inactive) |
| Nc1nc(=S)n2c(n1)oc1ccccc12 | > 4 mM (inactive) |
| Cc1onc(-c2c(Cl)cccc2Cl)c1C(N)=O | > 4 mM (inactive) |
| N#Cc1cc2c(nc1SCc1ccncc1)CCC2 | > 4 mM (inactive) |
| C=C[C@H]1CN2CC[C@H]1C[C@H]2[C@H](O)c1ccnc2ccccc12 | > 4 mM (inactive) |
| NC(=O)CCS(=O)(=O)CCN1CCOCC1 | > 4 mM (inactive) |
| O=C(O)c1cc(O)c2c(c1)[C@@H]([C@H]1c3cc(C(=O)O)cc(O)c3C(=O)c3c(O[C@H]4O[C@H](CO)[C@@H](O)[C@H](O)[C@H]4O)cccc31)c1cccc(O[C@H]3O[C@H](CO)[C@@H](O)[C@H](O)[C@H]3O)c1C2=O | > 4 mM (inactive) |
| Cc1cc(N(CN2CCCC2=O)C(=O)c2ccccc2)no1 | > 4 mM (inactive) |
| O=C(Nc1nncs1)c1c(F)c(F)c(F)c(F)c1F | > 4 mM (inactive) |
| Nc1cc(C(=O)N2CCCC2)cc(C(=O)N2CCCC2)c1 | > 4 mM (inactive) |

| Compound | Kd |
| --- | --- |
| Nc1nnc(Cc2ccc(Cl)cc2)s1 | > 4 mM (inactive) |
| CCn1cnc2cc([N+](=O)[O-])ccc2c1=O | > 4 mM (inactive) |
| OC(c1ccccc1)c1ccccn1 (stereo unspecified) | > 4 mM (inactive) |
| OCc1ccc(-n2cncn2)cc1 | > 4 mM (inactive) |
| CN(c1ccc(C(=O)N2CCCCC2)cc1)S(C)(=O)=O | > 4 mM (inactive) |
| O=NN1C(=O)c2ccccc2C1=O | > 4 mM (inactive) |
| O=C(O)CCCN1CNC(=S)NC1 | > 4 mM (inactive) |
| Cc1cc(F)c(F)c(C(=O)NC2CC2)c1Cl | > 4 mM (inactive) |
| COc1c(O)cc2oc3cc(O)c(CC=C(C)C)c(O)c3c(=O)c2c1CC=C(C)C | > 4 mM (inactive) |
| O=C(CC1SC(=O)NC1=O)Nc1ccccc1 (stereo unspecified) | > 4 mM (inactive) |
| O=C(c1cc2ccccc2o1)c1nc2c(n1O)CCCCC2 | > 4 mM (inactive) |
| c1ccc(Cc2nn3c(-c4ccncc4)nnc3s2)cc1 | > 4 mM (inactive) |
| O=C1COc2ccccc2C(=O)N1 | > 4 mM (inactive) |
| O=C(O)C1=C[C@@H](O)[C@@H](O)[C@H](O)C1 | > 4 mM (inactive) |
| Nc1nc(SCc2ccc3c(c2)OCO3)n[nH]1 | > 4 mM (inactive) |
| O=C(O)c1ccc(N2CCCCC2)cc1 | > 4 mM (inactive) |
| CN1CCN(c2ccc(CN)cc2)CC1 | > 4 mM (inactive) |
| CC1(C)CC2(CCO1)NCCN1C(=O)CSC12 (stereo unspecified) | > 4 mM (inactive) |
